Data set [1] in a line: 24 hour elution of vinblastine from EVOH coated stents in phosphated saline solution, HPLC analysis. It is filed as physicochemical. Particulars: for ug Release: Sterilized (electron beam) stent, 5 ml phosphated saline pH 7.4, room temperature; for Total uG Released / uG Release per Hour: Sterilized stent. As for the experimental part:
MULTI-LINK® stents were cleaned by placement in an ultrasonic bath of isopropyl alcohol solution for 10 minutes. The stents were dried and plasma cleaned in a plasma chamber. An EVOH solution was made with 1 gram of EVOH and 7 grams of DMSO, making an EVOH:DMSO ratio of 1:7. Vinblastine was added to the 1:7 EVOH:DMSO solution. Vinblastine constituted 2.5% by weight of the total weight of the solution. The solution was vortexed and placed in a tube. The cleaned MULTI-LINK® stents were attached to mandrel wires and dipped into the solution. The coated stents were passed over a hot plate, for about 3-5 seconds, with a temperature setting of about 60° C. The coated stents were cured for 6 hours in an air box then placed in a vacuum oven at 60° C. for 24 hours. The above process was repeated twice, having a total of three layers. The average weight of the coating was 0.00005 gram, with an estimated vinblastine concentration of 12 microgram per stent. Some of the stents were sterilized by electron beam radiation. The sterilized and unsterilized vinblastine coated stents were tested for a 24 hour elution period by placing one sterilized and one unsterilized stent in 5 ml of phosphated saline solution (pH 7.4) at room temperature with rotational motion. The amount of vinblastine eluted was evaluated by High Performance Liquid Chromatography (HPLC) analysis. The results of this test are given below in Tables 4A and 4B and plotted in FIG. 3.

Data set [2] deals with coronary arteries of a porcine stent injury model. Briefly: Reduction in restenosis in the porcine coronary artery stent injury model. It counts as in vivo, Domestic swine. Particulars: 28-day endpoint; for Percent Diameter Stenosis, angiographic data (QCA): microporous balloon catheter delivery before stenting. Here is the method:
Porcine coronary models were used to assess the degree of the inhibition of neointimal formation in the coronary arteries of a porcine stent injury model by Actinomycin D, delivered with a microporous balloon catheter (1×10^6 pores/mm^2 with sizes ranging from 0.2-0.8 micron).
The preclinical animal testing was performed in accordance with the NIH Guide for Care and Use of Laboratory Animals. Domestic swine were utilized to evaluate effect of the drug on the inhibition of the neointimal formation. Each testing procedure, excluding the angiographic analysis at the follow-up endpoints, was conducted using sterile techniques. During the study procedure, the activated clotting time (ACT) was monitored regularly to ensure appropriate anticoagulation. Base line blood samples were collected for each animal before initiation of the procedure. Quantitative coronary angiographic analysis (QCA) and intravascular ultrasound (IVUS) analysis was used for vessel size assessment.
The vessels at the sites of the delivery were denuded by inflation of the PTCA balloons to 1:1 balloon to artery ratio and moving the balloons back and forth 5 times. The drug was delivered to the denuded sites at 3.5 atm (3.61 Kg/sq cm) for 2 minutes using the microporous balloon catheters before stent deployment. The average volume of delivery was about 3.3+/−1.2 ml. Following drug delivery, stents were deployed at the delivery site such that final stent to artery ratio was 1.1:1.
QCA and IVUS analyses were used for stent deployment guidance. Pre-stenting IVUS measurements of the lumen size at the targeted vessel sites were performed for determination of the balloon (size) inflation pressure. Quantitative analysis of the stented coronary arteries to compare pre-stenting, post-stenting, follow-up minimal luminal diameters, stent recoil, and balloon/stent to artery ratio were performed. Following stent implantation and final angiogram, all devices were withdrawn and the wounds closed; the animals were allowed to recover from anesthesia as managed by the attending veterinarian or animal care professionals at the research center.
Upon return to the research laboratory at the 28-day endpoint, angiographic assessments were performed. Coronary artery blood flow was assessed and the stented vessels were evaluated to determine minimal lumen diameter. The animals were euthanized following this procedure at the endpoint. Following euthanasia, the hearts were pressure perfusion fixed with formalin and prepared for histological analysis, encompassing light microscopy, and morphometry. Morphometric analysis of the stented arteries included assessment of the position of the stent struts and determination of vessel/lumen areas, percent (%) stenosis, injury scores, intimal and medial areas and intima/media ratios. Percent stenosis is quantitated by the following equation: 100(IEL area−lumen area)/IEL area
where IEL is the internal elastic lamia.
The control group of animals received delivery of water instead of the drug. The test group of animals received actinomycin D in two different concentration of 10^−5M and 10^−4M. […] FIGS. 5A and 5B illustrate sample pictures of the histology slides of the coronary vessels from the control and the Dose 1 group, respectively.

Several values for one entry are separate records, joined by “and”; a condition that tells them apart may be missing. Equal entries are not always repeated. *1 amine or outer side, *2 acyl side, *3 side chain or, on linkers, in order; H or OH if unused. Where a SMILES comes first, the peptide text is derived from it. Bridges are numbered along the chain shown (N, C = ends). Roman numbers before positions name the chains, in order. [ ]: non-standard residue; d: D form. Actinocin(9to1) = Cc1c2oc3c(C)ccc(C(=O)[*:1])c3nc-2c(C(=O)[*:2])c(N)c1=O; NMeV = CN[C@H](C(=O)O)C(C)C; Sar = CNCC(=O)O

In the case of `CC[C@]1(O)C[C@@H]2CN(CCc3c([nH]c4ccccc34)[C@@](C(=O)OC)(c3cc4c(cc3OC)N(C)[C@H]3[C@@](O)(C(=O)OC)[C@H](OC(C)=O)[C@]5(CC)C=CCN6CC[C@]43[C@@H]65)C2)C1` [Vinblastine], the “ug Release” value in data set [1] (0 Hours) came to 0 µg; in data set [1] (0.5 Hours), 2.14 µg; in data set [1] (3 Hours), 1.7 µg; in data set [1] (4 Hours), 0.28 µg; in data set [1] (6 Hours), 0.26 µg; in data set [1] (24 Hours), 2.05 µg. The “Total uG Released” value in data set [1] (0 Hours) was 0 uG; in data set [1] (0.5 Hours) it was 2.14 uG; in data set [1] (3 Hours) it was 3.84 uG; in data set [1] (4 Hours), 4.12 uG; in data set [1] (6 Hours), 4.38 uG; in data set [1] (24 Hours), 6.43 uG. The “uG Release per Hour” value was found to be 0 uG per Hour in data set [1] (0 Hours); 4.28 uG per Hour in data set [1] (0.5 Hours); 0.68 uG per Hour in data set [1] (3 Hours); 0.28 uG per Hour in data set [1] (4 Hours); 0.13 uG per Hour in data set [1] (6 Hours); 0.11 uG per Hour in data set [1] (24 Hours). In addition, in data set [1] (sterilized vs unsterilized coated stents, 24 hour elution), the “effect of electron beam radiation procedure on the release of vinblastine from EVOH” value is on record as “does not interfere”.
Regarding `Cc1c2oc3c(C)ccc(C(=O)N[C@@H]4C(=O)N[C@H](C(C)C)C(=O)N5CCC[C@H]5C(=O)N(C)CC(=O)N(C)[C@@H](C(C)C)C(=O)O[C@@H]4C)c3nc-2c(C(=O)N[C@@H]2C(=O)N[C@H](C(C)C)C(=O)N3CCC[C@H]3C(=O)N(C)CC(=O)N(C)[C@@H](C(C)C)C(=O)O[C@@H]2C)c(N)c1=O` [actinomycin D] (I: T[dV]P[Sar][NMeV] / II: T[dV]P[Sar][NMeV]; ester I:1-I:C, II:1-II:C; linker I:N-II:N via Actinocin(9to1)), the “Percent Stenosis (IEL area-lumen area)/IEL area, histomorphometric data” value in data set [2] (DOSE 1 1E−05 M, n = 30) is recorded as 51.8%; in data set [2] (DOSE 2 1E−04 M, n = 21), 54.1%. For the same compound, the “Residual Lumen (Lumen area)/IEL area, histomorphometric data” value in data set [2] (DOSE 1 1E−05 M, n = 30) was found to be 0.49; in data set [2] (DOSE 2 1E−04 M, n = 21), 0.46. For the same compound, the “Percent Diameter Stenosis, angiographic data (QCA)” value in data set [2] (DOSE 1 1E−05 M, n = 10) was 36.8%; in data set [2] (DOSE 2 1E−04 M, n = 7) it was 32.3+/−11.7% and 32.3%.

These data come from patent US7390523B2, “Method of forming a diffusion barrier layer for implantable devices” (Advanced Cardiovascular Systems Inc., priority 2000, dated 2008).
